Assay [1] deals with hippocampus of apoE4-KI mice. In words: RNA-Seq analysis of hippocampal tissue of apoE4-KI mice. In kind it is in vivo. Here is the method: RNA-Seq analysis of hippocampal tissue. Twelve-month-old apoE3-KI and apoE4-KI mice received daily i.p. injections of vehicle or bumetanide (0.2 mg/kg body weight) for 60 days. Mice were perfused with 0.9% saline, and the hippocampus was dissected and homogenized in Trizol reagent. Total RNA was extracted and purified with the Qiagen RNeasy Micro kit, which included a DNase treatment. cDNA was generated from full-length RNA (50 ng per sample) with the NuGEN RNA-Seq V2 kit, which uses the single primer isothermal amplification method to deplete ribosomal RNA, and sheared by Covaris to yield fragments of uniform size. The NuGen Ultralow system V2 was used for adding adapters and for barcoding and amplification. The resulting RNA libraries were purified with Agencourt XP magnetic beads, and quantified by qPCR after quality control with an Agilent Bioanalyzer. The libraries were pooled and sequenced with a HiSeq 4000 instrument (Illumina) for single-end (SE50) sequencing. Sequence data were aligned with the STAR short read aligner^33 and counts per feature were obtained with the feautureCounts function from the Subread package^34. After alignment, transcripts not shared in the GSE15222 and Syn3157255-MayoEGWAS databases were discarded, as were genes with less than one count per million in two or more samples^35.
The DESeq pipeline was used to assess DE of the remaining 11,877 transcripts. Genes below a P value of 0.05 were considered DE for future pathway analysis. After count normalization with DESeq, data were rld transformed (vsn package), and clustering was done on the DE genes with the pheatmap package. PCA was applied to the rld-transformed DE genes. The DE signatures of drugs were analyzed with Ingenuity Pathway Analysis software. Ontology analysis was done using the reference set from the Ingenuity Knowledge Base including direct and indirect gene relationships. For analysis of rank changes of apoE-genotype-specific signature genes of AD, the raw count data from the 11,877 transcripts were rank transformed, and for each gene the average rank of vehicle-treated samples was subtracted from that of bumetanide-treated samples.

In another assay the test system is apoE3-KI mice. Nature of the assay: Morris water maze (MWM) spatial learning and memory, aged apoE3-KI mice. In kind it is in vivo. The settings on record: for short-term memory, 24-hour probe trial: vs vehicle-treated apoE3-KI. An excerpt: Mice. All protocols and procedures followed the guidelines of the Laboratory Animal Resource Center at the University of California, San Francisco (UCSF). All mice were housed under identical conditions from birth through death (12-hour light/dark cycle, housed 5/cage, PicoLab Rodent Diet 20). All mouse lines were maintained on a C57Bl/6J background. ApoE3-KI and apoE4-KI homozygous mouse lines (Taconic)^30,31 were born and aged under normal conditions at the Gladstone Institutes/UCSF animal facility. Female apoE-KI mice were used because of their susceptibility to AD-related neuronal and behavioral deficits. The ages of the mice are indicated in the behavioral testing section of the online methods. Bumetanide treatment. Bumetanide was prepared at 220 μM in 2% DMSO in 0.9% sterile saline, adjusted to pH 8.5 with NaOH for solubility, and given by i.p. injection daily starting 6 weeks before and continuing throughout behavioral assessment. Body weight was measured weekly during bumetanide treatment; injection volume was calculated to achieve a dose of 0.02 (low) or 0.2 (high) mg bumetanide/kg body mass (e.g., 50-ul daily injection for a 20-g mouse). Control mice were injected with a matched volume of 2% DMSO in 0.9% sterile saline, pH 8.5. […] Behavioral testing. Mice were singly housed before testing. Each mouse was assigned a random number, so researchers were blinded to genotype and treatment information. At about 14 months of age, apoE3-KI and apoE4-KI mice were randomly assigned to treatment groups: apoE3-KI vehicle (n=10, age 14.01±0.44 months), apoE3-KI low bumetanide (n=11, age 14.30±0.33 months), apoE3-KI high bumetanide (n=10, age 13.74±0.22 months), apoE4-KI vehicle (n=10, age 14.10±0.35), apoE4-KI low bumetanide (n=10, age 14.70±0.27 months), apoE4-KI high bumetanide (n=9, age 13.77±0.28 months). Treatment was administered daily by i.p. injection beginning 6 weeks before and continuing throughout the 14 days of testing in the Morris water maze (MWM); injections were given at the end of the light cycle and after the day's test. The MWM pool (diameter, 122 cm) contained opaque water (22-23° C.) with a platform 10 cm in diameter. The platform was submerged 1.5 cm during hidden platform sessions^20-23,32 and marked with black-and-white-striped mast (15 cm high) during cued training sessions. Mice were trained to locate the hidden platform (hidden days 1-5) and the cued platform (visible days 1-3) in two daily sessions (3.5 h apart), each consisting of two 60-s trials (hidden and cued training) with a 15-min intertrial interval. Distal visual cues on the walls of the behavioral testing room remained constant throughout the test. Visible trials took place after training and memory probes and were 60 seconds long with a cued visible platform. The platform location remained constant in the hidden platform sessions but was changed for each cued (visible) platform session. Entry points were changed semirandomly between trials. At 24, 72, and 120 hours after the last hidden platform training, a 60-s probe trial (platform removed) was done. The entry point for the probe trial was in the southwest quadrant, and the target quadrant was the northeast quadrant. Performance was monitored with an Etho Vision video-tracking system (Noldus Information Technology). For the probe trials, the following analyses were performed (1) the percent time spent in the target quadrant versus average time spent in the three other quadrants, (2) the number of crossings over the position of the target platform versus the average number of crossings over the equivalent positions in the three other quadrants and (3) the distance to platform over the first 10 seconds. Statistical analyses. Behavior metrics are expressed as mean±SEM. All values for n are the numbers of mice or biological replicates. The distribution of data was assessed with the Shapiro-Wilk normality test; most of the data were normally distributed. […]

The mark [2] stands for this setting: apoE3-KI mice, high dose 0.2 mg/kg daily i.p. 8 weeks.
Where [3] appears, read: apoE3-KI mice, low dose 0.02 mg/kg daily i.p. 8 weeks.

1 compound from patent US12544348B2, “Methods for treating APOE4/4-associated disorders” (The Regents of the University of California, priority 2018, dated 2026) can be followed below.

SMILES strings stand for the structures.

With `CCCCNc1cc(C(=O)O)cc(S(N)(=O)=O)c1Oc1ccccc1` [bumetanide, 3-(butylamino)-4-phenoxy-5-sulfamoylbenzoic acid], in assay [1] (DE genes P<0.05, apoE4-KI mouse hippocampus, 0.2 mg/kg i.p. 8 weeks), the “number of significantly perturbed pathways (Ingenuity Pathway Analysis)” value was 71. Moreover, the “number of enriched pathways shared with apoE4/4 AD in humans” value in assay [1] (apoE4-KI mouse hippocampus, 0.2 mg/kg i.p. 8 weeks) amounted to 6. Moreover, the “mean change in expression rank of genes downregulated in apoE4/4 AD (n=56)” value in assay [1] (apoE4-KI mouse hippocampus, 0.2 mg/kg i.p. 8 weeks vs vehicle) is on record as “not significantly shifted away from zero”. In addition, the “average change in expression rank of the 157 genes upregulated in apoE4/4 human AD” value in assay [1] (apoE4-KI mouse hippocampus, 0.2 mg/kg i.p. 8 weeks vs vehicle, mean of all genes zero, P<0.001 Monte Carlo, shift toward lower expression) was found to be 49.76. The “long-term memory, 120-hour probe trial (summary paragraph, dose not stated)” value in the assay on apoE3-KI mice (aged apoE3-KI mice, dose not stated, vehicle-treated apoE3-KI mice did not) is given as “remembered the hidden platform location”. For the same compound, the “learning curve (escape latency) in hidden platform trials” value with apoE3-KI mice (apoE3-KI mice, 0.02 or 0.2 mg/kg daily i.p. 8 weeks, vs vehicle, learning days 1-5) was “did not differ”. Moreover, in the assay with apoE3-KI mice (setting [2]), the “long-term memory, 120-hour probe trial” value is given as “forgot the hidden platform location”; the “platform crossings in target quadrant versus other quadrants, 24-hour probe trial” value is “not apoE3-KI mice”; the “platform crossings in target quadrant versus other quadrants, 120-hour probe trial” value is “not apoE3-KI mice”; the “short-term memory, 24-hour probe trial” value is “impaired short-term memory”. In addition, in the assay with apoE3-KI mice (setting [3]), the “long-term memory, 120-hour probe trial” value is reported as “forgot the hidden platform location” and the “short-term memory, 24-hour probe trial” value is recorded as “performed equally well”.
